Literature values as cited in patent publication US20120101165A1, “Urea Compositions With Cooling Effect” (priority 2007, published 2012).
Where two headings read alike, the source gives them in different places.

What was measured:
[1] = 20% urea solution
[2] = not given; remark: listed apart in the source
[3] = endothermic

critical relative humidity (at 20° C.): about 81%
critical relative humidity (at 30° C.): about 73%
pH after storage ([1]; after 11 months at room temperature): 8.8
initial pH ([1]; initial): about 7.4
solubility in water ([2]; at 20° C.): 108 g/100 mL
solubility in water ([2]; at 100° C.): 733 g/100 mL
heat of solution in water [3]: about −57.8 cal/g
SMILES: NC(N)=O [urea, diaminomethanal]
